Structures are written as SMILES.

Chain of recombinant IL4I1 (Q96RQ9 22-567): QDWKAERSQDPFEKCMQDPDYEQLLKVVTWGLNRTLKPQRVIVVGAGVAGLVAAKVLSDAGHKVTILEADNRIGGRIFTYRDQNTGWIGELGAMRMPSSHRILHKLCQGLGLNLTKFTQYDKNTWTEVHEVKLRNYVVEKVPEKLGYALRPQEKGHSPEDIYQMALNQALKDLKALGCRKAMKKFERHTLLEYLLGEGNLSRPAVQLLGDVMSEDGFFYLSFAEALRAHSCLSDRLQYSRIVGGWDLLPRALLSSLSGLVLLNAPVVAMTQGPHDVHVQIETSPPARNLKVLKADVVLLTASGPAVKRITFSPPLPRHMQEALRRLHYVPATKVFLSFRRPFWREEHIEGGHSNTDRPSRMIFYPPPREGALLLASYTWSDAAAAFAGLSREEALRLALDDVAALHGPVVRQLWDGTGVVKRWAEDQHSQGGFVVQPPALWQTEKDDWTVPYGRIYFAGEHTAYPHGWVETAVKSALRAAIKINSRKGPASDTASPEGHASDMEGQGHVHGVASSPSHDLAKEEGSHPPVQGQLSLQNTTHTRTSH

The assay addresses recombinant IL4I1 (Homo sapiens (Human), UniProt Q96RQ9). The assay is described as follows: IL4I1 Enzymatic Assay (Amplex Red/HRP coupled fluorescence detection of H2O2). The conditions noted are these: 240 min; recombinant IL4I1, four-hour pre-incubation with compound. The class given is biochemical. In a few lines: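 Recombinant human IL4I1 (1 nM final) pre-incubated 4 h with compound at ambient temperature in 50 mM Hepes pH 7.0, 0.005% Tween20. Started with 1 mM each Phe/Tyr/Trp plus Amplex Red/HRP; H2O2-derived resorufin fluorescence read after 120 min; EC50 from ten-point 1:3 titration, four-parameter fit.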
For `O=c1c(=O)n(C2CCCC2)ccn1Cc1cc(-c2ccc(F)cc2)no1` [Example 164, 1-cyclopentyl-4-((3-(4-fluorophenyl)isoxazol-5-yl)methyl)-1,4-dihydropyrazine-2,3-dione], the EC50 was found to be 1 nM.
In the case of `O=c1c(=O)n(C2CCC2)ccn1Cc1cc(-c2ccccc2)ns1` [Example 165], the EC50 stood at 12 nM.
Next, `CC1(N2CCN(Cc3nnc(-c4ccccc4)s3)C(=O)C2=O)CCC1` [Example 166, 1-(1-methylcyclobutyl)-4-((5-phenyl-1,3,4-thiadiazol-2-yl)methyl)piperazine-2,3-dione]: 10 nM; `CC1(N2CCN(Cc3cc(-c4ccccc4)on3)C(=O)C2=O)CCC1` [Example 167, 1-(1-methylcyclobutyl)-4-((5-phenylisoxazol-3-yl)methyl)piperazine-2,3-dione]: 9 nM.
With `O=c1c(=O)n(C2CCC2)ccn1Cc1cc(-c2ccccc2)n[nH]1` [Example 168, 1-cyclobutyl-4-((3-phenyl-1H-pyrazol-5-yl)methyl)-1,4-dihydropyrazine-2,3-dione], the EC50 worked out at 6 nM.
Next, `O=c1c(=O)n(C23CC(C2)C3)ccn1Cc1cc(-c2ccccn2)on1` [Example 169, 1-(bicyclo[1.1.1]pentan-1-yl)-4-((5-(pyridin-2-yl)isoxazol-3-yl)methyl)-1,4-dihydropyrazine-2,3-dione]: 7 nM.
Turning to `O=C1C(=O)N([C@H]2C[C@H]3C[C@H]3C2)CCN1Cc1cc(-c2ccccc2)no1` [Example 170, 1-((cis)-bicyclo[3.1.0]hexan-3-yl)-4-((3-phenylisoxazol-5-yl)methyl)piperazine-2,3-dione], the EC50 came out at 4 nM.
Next, `O=C1C(=O)N(C23CC(C2)C3)CCN1Cc1cc(-c2ccccc2)no1` [Example 171, 1-(bicyclo[1.1.1]pentan-1-yl)-4-((3-phenylisoxazol-5-yl)methyl)piperazine-2,3-dione]: 6 nM.
`O=c1c(=O)n(C23CC(C2)C3)ccn1Cc1cc(-c2ccccn2)no1` [Example 172, 1-(bicyclo[1.1.1]pentan-1-yl)-4-((3-(pyridin-2-yl)isoxazol-5-yl)methyl)-1,4-dihydropyrazine-2,3-dione]: the EC50 was found to be 7 nM.
Next, `O=c1c(=O)n(C2CCC2)ccn1Cc1cc(-c2ccccc2)sn1` [Example 173, 1-cyclobutyl-4-((5-phenylisothiazol-3-yl)methyl)-1,4-dihydropyrazine-2,3-dione]: 14 nM; `O=C1C(=O)N(C2CCC2)CCN1Cc1cn(-c2ccccc2)cn1` [Example 174, 1-cyclobutyl-4-((1-phenyl-1H-imidazol-4-yl)methyl)piperazine-2,3-dione]: 39 nM.
With `O=c1c(=O)n(C2CCC2)ccn1Cc1cn(-c2ccccc2)cn1` [Example 175, 1-cyclobutyl-4-((1-phenyl-1H-imidazol-4-yl)methyl)-1,4-dihydropyrazine-2,3-dione], the concentration for a half-maximal effect (EC50) is 14 nM.
Next, `O=C1C(=O)N(C2CCC2)CCN1Cc1ccc(-n2ncnn2)cn1` [Example 176, 1-((5-(2H-tetrazol-2-yl)pyridin-2-yl)methyl)-4-cyclobutylpiperazine-2,3-dione]: 40 nM; `O=C1C(=O)N(C2CCC2)CCN1CC12CC(c3ccccn3)(C1)C2` [Example 177, 1-cyclobutyl-4-((3-(pyridin-2-yl)bicyclo[1.1.1]pentan-1-yl)methyl)piperazine-2,3-dione]: 84 nM.
Next, `CC1CN(Cc2ccc(-n3nccn3)cn2)C(=O)C(=O)N1C1CCC1` (stereo not shown) [Example 178, 1-((5-(2H-1,2,3-triazol-2-yl)pyridin-2-yl)methyl)-4-cyclobutyl-5-methylpiperazine-2,3-dione]: 52 nM; `O=C1C(=O)N(C23CC(C2)C3)CCN1Cc1nnc(-c2ccccc2Cl)s1` [Example 179, 1-(bicyclo[1.1.1]pentan-1-yl)-4-((5-(2-chlorophenyl)-1,3,4-thiadiazol-2-yl)methyl)piperazine-2,3-dione]: 13 nM.
In the case of `CC1(n2ccn(Cc3cc(-c4ccccc4)no3)c(=O)c2=O)CCC1` [Example 181, 1-(1-methylcyclobutyl)-4-((3-phenylisoxazol-5-yl)methyl)-1,4-dihydropyrazine-2,3-dione], the EC50 is 10 nM.
As for `O=C1C(=O)N(C2CC3CC2C3)CCN1Cc1ccc(-c2ccccc2)nn1` (stereo not shown) [Example 183, 1-(bicyclo[2.1.1]hexan-2-yl)-4-((6-phenylpyridazin-3-yl)methyl)piperazine-2,3-dione], the EC50 was 24 nM.
Next, `O=C1C(=O)N(C2CC3CC2C3)CCN1Cc1ccc(-c2ccccc2F)nn1` (stereo not shown) [Example 184, 1-(bicyclo[2.1.1]hexan-2-yl)-4-((6-(2-fluorophenyl)pyridazin-3-yl)methyl)piperazine-2,3-dione]: 25 nM; `CC1(N2CCN(Cc3cc(-c4cccc(F)c4)no3)C(=O)C2=O)CCC1` [Example 185, 1-((3-(3-fluorophenyl)isoxazol-5-yl)methyl)-4-(1-methylcyclobutyl)piperazine-2,3-dione]: 8 nM; `CC1(n2ccn(Cc3cc(-c4cccc(F)c4)no3)c(=O)c2=O)CCC1` [Example 186, 1-((3-(3-fluorophenyl)isoxazol-5-yl)methyl)-4-(1-methylcyclobutyl)-1,4-dihydropyrazine-2,3-dione]: 4 nM.
Next, `O=c1c(=O)n(C23CC(C2)C3)ccn1Cc1cc(-c2nccs2)on1` [Example 187, 1-(bicyclo[1.1.1]pentan-1-yl)-4-((5-(thiazol-2-yl)isoxazol-3-yl)methyl)-1,4-dihydropyrazine-2,3-dione]: 8 nM.
Consider `CC1(N2CCN(Cc3cc(-c4ccc(F)cc4)no3)C(=O)C2=O)CCC1` [Example 188, 1-((3-(4-fluorophenyl)isoxazol-5-yl)methyl)-4-(1-methylcyclobutyl)piperazine-2,3-dione], for which the EC50 was determined as 10 nM.
Next, `CC1(n2ccn(Cc3cc(-c4ccc(F)cc4)no3)c(=O)c2=O)CCC1` [Example 189, 1-((3-(4-fluorophenyl)isoxazol-5-yl)methyl)-4-(1-methylcyclobutyl)-1,4-dihydropyrazine-2,3-dione]: 4 nM; `CC1(N2CCN(CC34CC(c5ccccc5)(C3)C4(F)F)C(=O)C2=O)CCC1` [Example 190, 1-((2,2-difluoro-3-phenylbicyclo[1.1.1]pentan-1-yl)methyl)-4-(1-methylcyclobutyl)piperazine-2,3-dione]: 31 nM; `O=C1C(=O)N(C23CC(C2)C3)CCN1CC12CC(c3ccccc3)(C1)C2(F)F` [Example 191, 1-(bicyclo[1.1.1]pentan-1-yl)-4-((2,2-difluoro-3-phenylbicyclo[1.1.1]pentan-1-yl)methyl)piperazine-2,3-dione]: 35 nM.
In the case of `O=c1c(=O)n(C2CCC2)ccn1Cc1ccc(-c2c(F)cccc2F)nn1` [Example 192, 1-cyclobutyl-4-((6-(2,6-difluorophenyl)pyridazin-3-yl)methyl)-1,4-dihydropyrazine-2,3-dione], the 50% effective concentration (EC50) turned out to be 13 nM.
Next, `O=c1c(=O)n(C23CC(C2)C3)ccn1Cc1ccc(-c2ccccc2F)nn1` [Example 193, 1-(bicyclo[1.1.1]pentan-1-yl)-4-((6-(2-fluorophenyl)pyridazin-3-yl)methyl)-1,4-dihydropyrazine-2,3-dione]: 8 nM; `O=C1C(=O)N(C2(CF)CC2)CCN1Cc1nnc(-c2ccccc2F)s1` [Example 194, 1-(1-(fluoromethyl)cyclopropyl)-4-((5-(2-fluorophenyl)-1,3,4-thiadiazol-2-yl)methyl)piperazine-2,3-dione]: 41 nM.
Next, `O=C1C(=O)N(C2(CF)CC2)CCN1Cc1ccc(-c2ccccc2F)nn1` [Example 195, 1-(1-(fluoromethyl)cyclopropyl)-4-((6-(2-fluorophenyl)pyridazin-3-yl)methyl)piperazine-2,3-dione]: 48 nM; `O=C1C(=O)N(C2(CF)CC2)CCN1Cc1cc(-c2ccccc2)no1` [Example 196, 1-(1-(fluoromethyl)cyclopropyl)-4-((3-phenylisoxazol-5-yl)methyl)piperazine-2,3-dione]: 11 nM; `CC1(n2ccn(Cc3ccc(-c4ccccc4F)nn3)c(=O)c2=O)CC1` [Example 197, 1-((6-(2-fluorophenyl)pyridazin-3-yl)methyl)-4-(1-methylcyclopropyl)-1,4-dihydropyrazine-2,3-dione]: 33 nM.
Next, `N#CC1(n2ccn(Cc3ccc(-c4ccccc4F)nn3)c(=O)c2=O)CC1` [Example 198, 1-(4-((6-(2-fluorophenyl)pyridazin-3-yl)methyl)-2,3-dioxo-3,4-dihydropyrazin-1(2H)-yl)cyclopropane-1-carbonitrile]: 76 nM.
With `CC1(n2ccn(Cc3cc(-c4ccccn4)no3)c(=O)c2=O)CC1` [Example 199, 1-(1-methylcyclopropyl)-4-((3-(pyridin-2-yl)isoxazol-5-yl)methyl)-1,4-dihydropyrazine-2,3-dione], the EC50 is 24 nM.
As to `N#CC1(n2ccn(Cc3cc(-c4ccccn4)no3)c(=O)c2=O)CC1` [Example 200, 1-(2,3-dioxo-4-((3-(pyridin-2-yl)isoxazol-5-yl)methyl)-3,4-dihydropyrazin-1(2H)-yl)cyclopropane-1-carbonitrile], the EC50 was determined as 68 nM.
Next, `O=c1c(=O)n(C23CC(F)(C2)C3)ccn1Cc1ccc(-c2ccccc2F)nn1` [Example 201, 1-(3-fluorobicyclo[1.1.1]pentan-1-yl)-4-((6-(2-fluorophenyl)pyridazin-3-yl)methyl)-1,4-dihydropyrazine-2,3-dione]: 30 nM; `CC1(n2ccn(Cc3ccc(-n4nccn4)cn3)c(=O)c2=O)CC1` [Example 202, 1-((5-(2H-1,2,3-triazol-2-yl)pyridin-2-yl)methyl)-4-(1-methylcyclopropyl)-1,4-dihydropyrazine-2,3-dione]: 44 nM.

Usually EC50 stands for the midpoint of the concentration-response curve.

For the origin of these results see patent US20240246937A1 (MERCK SHARP & DOHME LLC, priority 2021, published 2024).
